According to PubChem BioAssay AID180 (DTP/NCI, 2004):
Values joined by “and” are separate entries in the source; they are usually repeats but may differ in a detail not shown here. Equal entries are not always repeated.

Test system: BDF1 mice, Adenocarcinoma 755 s.c., tumor weight T/C
Experiment: NCI In Vivo Anticancer Drug Screen. Data for tumor model Adenocarcinoma 755 (subcutaneous) in B6D2F1 (BDF1) mice
Details: endpoint: mean tumor weight, schedule: Q01DX011 (ip), higher = larger tumour
In short: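 Readout: T/C, i.e. treated-group measurement over vehicle-control measurement. Endpoint is survival or tumor size in tumor-bearing mice given compound.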

[1] = dose: 50.0 mg/kg/injection, vehicle: saline

## C=CCn1cnc2c(Cl)ncnc21
dose: 25.0 mg/kg/injection, vehicle: carboxymethylcellulose (CMC)
  T/C: 10 % of control
dose: 50.0 mg/kg/injection, vehicle: carboxymethylcellulose (CMC)
  T/C: 6 % of control

## CCCC(=O)OCC1OC(n2cnc3c(=S)nc(N)[nH]c32)C(OC(=O)CCC)C1OC(=O)CCC (configuration not stated)
dose: 0.16 mg/kg/injection, vehicle: saline
  T/C: 57 % of control
dose: 0.38 mg/kg/injection, vehicle: saline
  T/C: 88 % of control
dose: 0.58 mg/kg/injection, vehicle: saline
  T/C: 82 % of control
dose: 1.3 mg/kg/injection, vehicle: saline
  T/C: 31 % of control
dose: 2.0 mg/kg/injection, vehicle: saline
  T/C: 18 % of control
dose: 3.0 mg/kg/injection, vehicle: saline
  T/C: 4 % of control
dose: 6.0 mg/kg/injection, vehicle: carboxymethylcellulose (CMC)
  T/C: 2 % of control and 11 % of control
dose: 12.0 mg/kg/injection, vehicle: carboxymethylcellulose (CMC)
  T/C: 2 % of control and 3 % of control
dose: 24.0 mg/kg/injection, vehicle: carboxymethylcellulose (CMC)
  T/C: 1 % of control

## CSc1ncn(C)c2ncnc1-2
dose: 30.0 mg/kg/injection, vehicle: carboxymethylcellulose (CMC)
  T/C: 58 % of control
dose: 60.0 mg/kg/injection, vehicle: carboxymethylcellulose (CMC)
  T/C: 71 % of control

## CCCCCCCCCCCCCCCC[n+]1ccccc1
dose: 0.12 mg/kg/injection, vehicle: water
  T/C: 89 % of control
dose: 0.25 mg/kg/injection, vehicle: water
  T/C: 79 % of control
dose: 0.5 mg/kg/injection, vehicle: water
  T/C: 89 % of control

## Cc1ncc(CO)c(C)c1O
dose: 12.5 mg/kg/injection, vehicle: saline
  T/C: 48 % of control
dose: 22.78 mg/kg/injection, vehicle: carboxymethylcellulose (CMC)
  T/C: 81 % of control
dose: 25.0 mg/kg/injection, vehicle: methylcellulose (MC)
  T/C: 98 % of control
dose: 25.0 mg/kg/injection, vehicle: saline
  T/C: 45 % of control
dose: 45.57 mg/kg/injection, vehicle: carboxymethylcellulose (CMC)
  T/C: 70 % of control
dose: 50.0 mg/kg/injection, vehicle: methylcellulose (MC)
  T/C: 75 % of control
[1]
  T/C: 54 % of control
dose: 59.07 mg/kg/injection, vehicle: carboxymethylcellulose (CMC)
  T/C: 107 % of control
dose: 75.0 mg/kg/injection, vehicle: saline
  T/C: 50 % of control
dose: 91.15 mg/kg/injection, vehicle: carboxymethylcellulose (CMC)
  T/C: 76 % of control
dose: 100.0 mg/kg/injection, vehicle: methylcellulose (MC)
  T/C: 71 % of control
dose: 100.0 mg/kg/injection, vehicle: saline
  T/C: 22 % of control
dose: 118.15 mg/kg/injection, vehicle: carboxymethylcellulose (CMC)
  T/C: 108 % of control
dose: 125.0 mg/kg/injection, vehicle: methylcellulose (MC)
  T/C: 48 % of control
dose: 150.0 mg/kg/injection, vehicle: saline
  T/C: 30 % of control
dose: 182.3 mg/kg/injection, vehicle: carboxymethylcellulose (CMC)
  T/C: 72 % of control
dose: 200.0 mg/kg/injection, vehicle: methylcellulose (MC)
  T/C: 70 % of control
dose: 236.3 mg/kg/injection, vehicle: carboxymethylcellulose (CMC)
  T/C: 55 % of control

## Nc1nc(N)c(N)c(N)n1
[1]
  T/C: 82 % of control
dose: 200.0 mg/kg/injection, vehicle: saline
  T/C: 92 % of control
dose: 400.0 mg/kg/injection, vehicle: saline
  T/C: 90 % of control

## NOCC(=O)O
dose: 6.25 mg/kg/injection, vehicle: water
  T/C: 62 % of control
dose: 12.5 mg/kg/injection, vehicle: other
  T/C: 54 % of control
dose: 12.5 mg/kg/injection, vehicle: water
  T/C: 68 % of control and 70 % of control
dose: 18.75 mg/kg/injection, vehicle: other
  T/C: 65 % of control
dose: 25.0 mg/kg/injection, vehicle: water
  T/C: 29 % of control
